The source of these data is US20250154686A1, “COMPOUND LIBRARY” (CHUGAI SEIYAKU KABUSHIKI KAISHA, priority 2021, published 2025).

In this experiment the target is T1, Bcl-2 protein (Recombinant Human Bcl-2 Protein) (Homo sapiens, UniProt P10415).
T1 construct: purchased Novus Biologicals NBP2-34889
As to the kind of experiment: AS-MS evaluation of binding of the Example 4 mixture library (1200 compounds/well) to Bcl-2, ASMS ratio (%). The note with it: AS-MS, Example 4 mixture library; for ASMS ratio (%) n = 1: Bcl-2, replicate n = 1; for ASMS ratio (%) n = 2: Bcl-2, replicate n = 2. An outline of the steps: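 Affinity-selection MS: 1200 cpds/well, 20 nM each; hBcl-2 20 μM; 25 mM Tris pH 7.4/150 mM NaCl/0.025% Tween-20/1 mM DTT; 1 h, 23 °C, dark; P-2 size-exclusion spin, MeCN:MeOH 1:1 extraction; RP LC/MS; ratio vs no-protein STD and SEC blank.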

T1 sequence (P10415 whole entry): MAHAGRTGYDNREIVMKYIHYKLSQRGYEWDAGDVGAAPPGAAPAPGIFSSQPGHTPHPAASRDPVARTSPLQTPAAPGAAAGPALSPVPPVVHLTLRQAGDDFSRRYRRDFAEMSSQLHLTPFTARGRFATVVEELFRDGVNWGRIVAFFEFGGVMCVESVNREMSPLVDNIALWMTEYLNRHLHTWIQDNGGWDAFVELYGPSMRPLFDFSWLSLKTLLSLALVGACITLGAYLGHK

Consider `CCOc1cncc(C#Cc2cc(C(=O)N3CCN(c4ccc(C(=O)NS(=O)(=O)CCC(F)(F)F)cc4)CC3)cc(C(F)(F)F)c2)c1` [Compound B2N042-01, 4-[4-[3-[2-(5-Ethoxypyridin-3-yl)ethynyl]-5-(trifluoromethyl)benzoyl]piperazin-1-yl]-N-(3,3,3-trifluoropropylsulfonyl)benzamide], for which the “ASMS ratio (%) n = 1” value worked out at 0.0% and the “ASMS ratio (%) n = 2” value stood at 0.0%.

Consider `CCOc1cccc(-c2cnn(-c3cc(C(=O)N4CCN(c5ccc(C(=O)NS(=O)(=O)CCC(F)(F)F)cc5)CC4)cc(C(F)(F)F)c3)c2)c1` [Compound B2N043-01, 4-[4-[3-[4-(3-Ethoxyphenyl)pyrazol-1-yl]-5-(trifluoromethyl)benzoyl]piperazin-1-yl]-N-(3,3,3-trifluoropropylsulfonyl)benzamide], for which the “ASMS ratio (%) n = 1” value was −1.4% and the “ASMS ratio (%) n = 2” value was determined as 0.1%. `CCOc1cncc(-c2cnn(-c3cc(C(=O)N4CCN(c5ccc(C(=O)NS(=O)(=O)CCC(F)(F)F)cc5)CC4)cc(C(F)(F)F)c3)c2)c1` [Compound B2N044-01, 4-[4-[3-[4-(5-Ethoxypyridin-3-yl)pyrazol-1-yl]-5-(trifluoromethyl)benzoyl]piperazin-1-yl]-N-(3,3,3-trifluoropropylsulfonyl)benzamide]: the “ASMS ratio (%) n = 1” value was determined as 0.2% and the “ASMS ratio (%) n = 2” value is 1.4%. The matching figures for `CCOc1cccc(-c2ccccc2CN2CCN(c3ccc(C(=O)NS(=O)(=O)CCC(F)(F)F)cc3)CC2)c1` [Compound B2N045-01, 4-[4-[[2-(3-Ethoxyphenyl)phenyl]methyl]piperazin-1-yl]-N-(3,3,3-trifluoropropylsulfonyl)benzamide]: 0.0% and 0.1%. As to `CCOc1cncc(-c2ccccc2CN2CCN(c3ccc(C(=O)NS(=O)(=O)CCC(F)(F)F)cc3)CC2)c1` [Compound B2N046-01, 4-[4-[[2-(5-Ethoxypyridin-3-yl)phenyl]methyl]piperazin-1-yl]-N-(3,3,3-trifluoropropylsulfonyl)benzamide], the “ASMS ratio (%) n = 1” value turned out to be 0.0% and the “ASMS ratio (%) n = 2” value is listed as −1.2%. Consider `CCOc1cccc(-c2ccc(CN3CCN(c4ccc(C(=O)NS(=O)(=O)CCC(F)(F)F)cc4)CC3)cc2C)c1` [Compound B2N047-01, 4-[4-[[4-(3-Ethoxyphenyl)-3-methylphenyl]methyl]piperazin-1-yl]-N-(3,3,3-trifluoropropylsulfonyl)benzamide], for which the “ASMS ratio (%) n = 1” value is given as 0.0% and the “ASMS ratio (%) n = 2” value came out at 0.0%. Turning to `CCOc1cncc(-c2ccc(CN3CCN(c4ccc(C(=O)NS(=O)(=O)CCC(F)(F)F)cc4)CC3)cc2C)c1` [Compound B2N048-01, 4-[4-[[4-(5-Ethoxypyridin-3-yl)-3-methylphenyl]methyl]piperazin-1-yl]-N-(3,3,3-trifluoropropylsulfonyl)benzamide], the “ASMS ratio (%) n = 1” value came out at 0.0% and the “ASMS ratio (%) n = 2” value is recorded as −0.7%. Regarding `CCOc1cccc(-c2ccc(CN3CCN(c4ccc(C(=O)NS(=O)(=O)CCC(F)(F)F)cc4)CC3)c(CC)c2)c1` [Compound B2N049-01, 4-[4-[[4-(3-Ethoxyphenyl)-2-ethylphenyl]methyl]piperazin-1-yl]-N-(3,3,3-trifluoropropylsulfonyl)benzamide], the “ASMS ratio (%) n = 1” value was determined as 0.0% and the “ASMS ratio (%) n = 2” value amounted to 0.0%. `CCOc1cncc(-c2ccc(CN3CCN(c4ccc(C(=O)NS(=O)(=O)CCC(F)(F)F)cc4)CC3)c(CC)c2)c1` [Compound B2N050-01]: the “ASMS ratio (%) n = 1” value was 0.0%. As for `CCOc1cccc(-c2ccc(CN3CCN(c4ccc(C(=O)NS(=O)(=O)CCC(F)(F)F)cc4)CC3)cc2F)c1` [Compound B2N051-01, 4-[4-[[4-(3-Ethoxyphenyl)-3-fluorophenyl]methyl]piperazin-1-yl]-N-(3,3,3-trifluoropropylsulfonyl)benzamide], the “ASMS ratio (%) n = 1” value amounted to 0.0% and the “ASMS ratio (%) n = 2” value worked out at 0.0%. For `CCOc1cncc(-c2ccc(CN3CCN(c4ccc(C(=O)NS(=O)(=O)CCC(F)(F)F)cc4)CC3)cc2F)c1` [Compound B2N052-01], the “ASMS ratio (%) n = 1” value is 0.0% and the “ASMS ratio (%) n = 2” value is listed as −0.5%. For the compound `CCOc1cccc(-c2ccc(CN3CCN(c4ccc(C(=O)NS(=O)(=O)CCC(F)(F)F)cc4)CC3)c(OC)c2)c1` [Compound B2N053-01, 4-[4-[[4-(3-Ethoxyphenyl)-2-methoxyphenyl]methyl]piperazin-1-yl]-N-(3,3,3-trifluoropropylsulfonyl)benzamide], the “ASMS ratio (%) n = 1” value turned out to be 0.0% and the “ASMS ratio (%) n = 2” value is reported as 1.4%. Take `CCOc1cncc(-c2ccc(CN3CCN(c4ccc(C(=O)NS(=O)(=O)CCC(F)(F)F)cc4)CC3)c(OC)c2)c1` [Compound B2N054-01, 4-[4-[[4-(5-Ethoxypyridin-3-yl)-2-methoxyphenyl]methyl]piperazin-1-yl]-N-(3,3,3-trifluoropropylsulfonyl)benzamide]: the “ASMS ratio (%) n = 1” value is on record as 0.0% and the “ASMS ratio (%) n = 2” value came out at 0.0%.

As to `CCOc1cccc(-c2cc(CN3CCN(c4ccc(C(=O)NS(=O)(=O)CCC(F)(F)F)cc4)CC3)cc(OCC)c2)c1` [Compound B2N055-01], the “ASMS ratio (%) n = 1” value was determined as 0.0% and the “ASMS ratio (%) n = 2” value amounted to 0.0%. In the case of `CCOc1cncc(-c2cc(CN3CCN(c4ccc(C(=O)NS(=O)(=O)CCC(F)(F)F)cc4)CC3)cc(OCC)c2)c1` [Compound B2N056-01, 4-[4-[[3-Ethoxy-5-(5-ethoxypyridin-3-yl)phenyl]methyl]piperazin-1-yl]-N-(3,3,3-trifluoropropylsulfonyl)benzamide], the “ASMS ratio (%) n = 1” value is given as 0.0% and the “ASMS ratio (%) n = 2” value came to 0.0%.

For `CCOc1cccc(-c2cc(CN3CCN(c4ccc(C(=O)NS(=O)(=O)CCC(F)(F)F)cc4)CC3)cc(OC(C)C)c2)c1` [Compound B2N057-01, 4-[4-[[3-(3-Ethoxyphenyl)-5-propan-2-yloxyphenyl]methyl]piperazin-1-yl]-N-(3,3,3-trifluoropropylsulfonyl)benzamide], the “ASMS ratio (%) n = 1” value came out at 0.0% and the “ASMS ratio (%) n = 2” value was −1.8%.

In the case of `CCOc1cncc(-c2cc(CN3CCN(c4ccc(C(=O)NS(=O)(=O)CCC(F)(F)F)cc4)CC3)cc(OC(C)C)c2)c1` [Compound B2N058-01], the “ASMS ratio (%) n = 1” value came to 0.0% and the “ASMS ratio (%) n = 2” value is listed as 0.0%. For the compound `CCOc1cccc(-c2cc(OC)c(CN3CCN(c4ccc(C(=O)NS(=O)(=O)CCC(F)(F)F)cc4)CC3)c(OC)c2)c1` [Compound B2N059-01, 4-[4-[[4-(3-Ethoxyphenyl)-2,6-dimethoxyphenyl]methyl]piperazin-1-yl]-N-(3,3,3-trifluoropropylsulfonyl)benzamide], the “ASMS ratio (%) n = 1” value worked out at 0.0% and the “ASMS ratio (%) n = 2” value worked out at 0.0%.

`CCOc1cncc(-c2cc(OC)c(CN3CCN(c4ccc(C(=O)NS(=O)(=O)CCC(F)(F)F)cc4)CC3)c(OC)c2)c1` [Compound B2N060-01, 4-[4-[[4-(5-Ethoxypyridin-3-yl)-2,6-dimethoxyphenyl]methyl]piperazin-1-yl]-N-(3,3,3-trifluoropropylsulfonyl)benzamide]: the “ASMS ratio (%) n = 1” value is 0.0% and the “ASMS ratio (%) n = 2” value stood at 0.0%. For the compound `CCOc1cccc(-c2cc(CN3CCN(c4ccc(C(=O)NS(=O)(=O)CCC(F)(F)F)cc4)CC3)cc(C(F)(F)F)c2)c1` [Compound B2N061-01], the “ASMS ratio (%) n = 1” value is reported as 0.0% and the “ASMS ratio (%) n = 2” value came out at 0.0%.

On to `CCOc1cncc(-c2cc(CN3CCN(c4ccc(C(=O)NS(=O)(=O)CCC(F)(F)F)cc4)CC3)cc(C(F)(F)F)c2)c1` [Compound B2N062-01, 4-[4-[[3-(5-Ethoxypyridin-3-yl)-5-(trifluoromethyl)phenyl]methyl]piperazin-1-yl]-N-(3,3,3-trifluoropropylsulfonyl)benzamide], for which the “ASMS ratio (%) n = 1” value is reported as 0.0% and the “ASMS ratio (%) n = 2” value was determined as 0.0%. For the compound `CCOc1cccc(-c2cc(CN3CCN(c4ccc(C(=O)NS(=O)(=O)CCC(F)(F)F)cc4)CC3)cc(OC(F)(F)F)c2)c1` [Compound B2N063-01, 4-[4-[[3-(3-Ethoxyphenyl)-5-(trifluoromethoxy)phenyl]methyl]piperazin-1-yl]-N-(3,3,3-trifluoropropylsulfonyl)benzamide], the “ASMS ratio (%) n = 1” value is on record as −0.3% and the “ASMS ratio (%) n = 2” value was −3.8%. In the case of `CCOc1cncc(-c2cc(CN3CCN(c4ccc(C(=O)NS(=O)(=O)CCC(F)(F)F)cc4)CC3)cc(OC(F)(F)F)c2)c1` [Compound B2N064-01, 4-[4-[[3-(5-Ethoxypyridin-3-yl)-5-(trifluoromethoxy)phenyl]methyl]piperazin-1-yl]-N-(3,3,3-trifluoropropylsulfonyl)benzamide], the “ASMS ratio (%) n = 1” value stood at 0.0% and the “ASMS ratio (%) n = 2” value stood at 0.0%.

For the compound `CCOc1cccc(-c2ccc(CN3CCN(c4ccc(C(=O)NS(=O)(=O)CCC(F)(F)F)cc4)CC3)c3ccccc23)c1` [Compound B2N065-01, 4-[4-[[4-(3-Ethoxyphenyl)naphthalen-1-yl]methyl]piperazin-1-yl]-N-(3,3,3-trifluoropropylsulfonyl)benzamide], the “ASMS ratio (%) n = 1” value stood at 0.0% and the “ASMS ratio (%) n = 2” value was determined as 0.0%.

Turning to `CCOc1cncc(-c2ccc(CN3CCN(c4ccc(C(=O)NS(=O)(=O)CCC(F)(F)F)cc4)CC3)c3ccccc23)c1` [Compound B2N066-01, 4-[4-[[4-(5-Ethoxypyridin-3-yl)naphthalen-1-yl]methyl]piperazin-1-yl]-N-(3,3,3-trifluoropropylsulfonyl)benzamide], the “ASMS ratio (%) n = 1” value was found to be 0.0% and the “ASMS ratio (%) n = 2” value is 0.0%. Consider `CCOc1cccc(-c2csc(CN3CCN(c4ccc(C(=O)NS(=O)(=O)CCC(F)(F)F)cc4)CC3)c2)c1` [Compound B2N067-01, 4-[4-[[4-(3-Ethoxyphenyl)thiophen-2-yl]methyl]piperazin-1-yl]-N-(3,3,3-trifluoropropylsulfonyl)benzamide], for which the “ASMS ratio (%) n = 1” value came out at 0.0% and the “ASMS ratio (%) n = 2” value is reported as 0.0%.
